Experimental data: US9981938B2, “Quaternary ammonium alkyl esters as stable prodrugs” (ALLERGAN, INC., priority 2014, dated 2018)

Test: Stability of compounds in aqueous solution
Type: physicochemical
Settings: compound dissolved in aqueous solution, in %; for stability, 25° C./ 7 days: maintained at 25° C. for 7 days; for stability, 25° C./ 14 days: maintained at 25° C. for 14 days; for stability, 40° C./ 7 days: maintained at 40° C. for 7 days
Experimental: In some embodiments the stability of the compound is such that, when stored in an aqueous solution at 25° C. for 7 days or 14 days, at least about 70%, at least about 80%, at least about 90%, at least about 95%, at least about 97%, at least about 99% of the original compound, and up to about 100% of the original compound remains in the solution. In some embodiments, the stability of the compound is such that at least about 70%, at least about 80%, at least about 90%, at least about 95%, at least about 97%, at least about 99% of the original compound, and up to about 100% of original compound remains after 7 days of storage in an aqueous solution at 40° C.
The following Table 1 depicts various embodiments indicating the stability of compounds depicted by their respective structures in the table. The compounds were dissolved in an aqueous solution, and maintained at the indicated temperatures, for 7 to 14 days, as indicated.

SMILES	stability, 25° C./ 7 days	stability, 25° C./ 14 days	stability, 40° C./ 7 days
CN(C)Cc1ccc(OC(=O)c2ccc(CCC[C@@H]3[C@@H](CCc4cc(Cl)cc(Cl)c4)[C@H](O)C[C@H]3Cl)s2)cc1 [Compound 2, 5-(3-{(1R, 2R, 3R, 5R)-5-Chloro-2-[2-(3,5-dichlorophenyl)ethyl]-3-hydroxycyclopentyl}-propyl)thiophene-2-carboxylic acid 4-dimethylaminomethyl phenyl ester]	96.4	95.2	78.0
O=C(Oc1ccc(CN2CCOCC2)cc1)c1ccc(CCC[C@@H]2[C@@H](CCc3cc(Cl)cc(Cl)c3)[C@H](O)C[C@H]2Cl)s1 [Compound 3, 5-(3-{(1R, 2R, 3R, 5R)-5-Chloro-2-[2-(3,5-dichlorophenyl)ethyl]-3-hydroxycyclopentyl}-propyl)thiophene-2-carboxylic acid 4-morpholin-4-ylmethyl phenyl ester]	97.3	97.3	91.7
CN(C)c1ccc(OC(=O)c2ccc(CCC[C@@H]3[C@@H](CCc4cc(Cl)cc(Cl)c4)[C@H](O)C[C@H]3Cl)s2)cc1 [Compound 4, 5-(3-{(1R, 2R, 3R, 5R)-5-Chloro-2-[2-(3,5-dichlorophenyl)ethyl]-3-hydroxycyclopentyl}-propyl)thiophene-2-carboxylic acid 4-dimethylaminophenyl ester]	98.7	100.2	96.0
CC(CCN1CCOCC1)OC(=O)c1ccc(CCC[C@@H]2[C@@H](CCc3cc(Cl)cc(Cl)c3)[C@H](O)C[C@H]2Cl)s1 (stereo partly drawn) [Compound 5, 5-(3-{(1R, 2R, 3R, 5R)-5-Chloro-2-[2-(3,5-dichlorophenyl)ethyl]-3-hydroxycyclopentyl}propyl)thiophene-2-carboxylic acid, 1-methyl-3-morpholin-4-yl propyl ester]	98.5	95.4	89.3
O=C(OCCCN1CCOCC1)c1ccc(CCC[C@@H]2[C@@H](CCc3cc(Cl)cc(Cl)c3)[C@H](O)C[C@H]2Cl)s1 [Compound 6, 5-(3-{(1R, 2R, 3R, 5R)-5-Chloro-2-[2-(3,5-dichlorophenyl)ethyl]-3-hydroxycyclopentyl}propyl)thiophene-2-carboxylic acid, 3-morpholin-4-yl propyl ester]	103.0	102.9	98.0
CC(CN(C)C)OC(=O)c1ccc(CCC[C@@H]2[C@@H](CCc3cc(Cl)cc(Cl)c3)[C@H](O)C[C@H]2Cl)s1 (stereo partly drawn) [Compound 7, 5-(3-{(1R, 2R, 3R, 5R)-5-Chloro-2-[2-(3,5-dichlorophenyl)ethyl]-3-hydroxycyclopentyl}propyl)thiophene-2-carboxylic acid, 2-dimethylamino-1-methyl ethyl ester]	94.3	78.5	70.3
CCN(CC)CCOC(=O)c1ccc(CCC[C@@H]2[C@@H](CCc3cc(Cl)cc(Cl)c3)[C@H](O)C[C@H]2Cl)s1 [Compound 8, 5-(3-{(1R, 2R, 3R, 5R)-5-Chloro-2-[2-(3,5-dichlorophenyl)ethyl]-3-hydroxycyclopentyl}-propyl)thiophene-2-carboxylic acid, 2-diethylaminoethyl ester]	95.8	84.6	79.1
CC[N+](C)(CC)CCCOC(=O)c1ccc(CCC[C@@H]2[C@@H](CCc3cc(Cl)cc(Cl)c3)[C@H](O)C[C@H]2Cl)s1 [Compound 9, {3-[5-(3-{(1R, 2R, 3R, 5R)-5-Chloro-2-[2-(3,5-dichlorophenyl)ethyl]-3-hydroxycyclopentyl}-propyl)thiophene-2-carbonyloxy]propyl}diethyl methyl ammonium iodide]	100.5	101.1	101.8
